Source: PubChem BioAssay AID1919010 (Molecular Pharmacology Branch, DTP, NCI, 2023)

Test system: Hs578T complex spheroid growth, percent test/control
Test: Anticancer human tumor Hs578T cell line growth inhibition [AhR];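 also: luminescent viability signal as a proxy for spheroid growth; spheroids exposed to agents for one week after three days of growth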
Details: for IC50: curve of first compound; for viability, T/C: stronger effect = lower value
Description: Multicellular complex tumor spheroid response to aryl hydrocarbon receptor antagonists in combination with a variety of drugs and investigational agents in selected tumor cell lines
The current study was undertaken to assess response to aryl hydrocarbon receptor antagonists in combination with standard-of-care drugs and investigational agents in solid tumor complex spheroid models. Complex spheroids include a stromal component modeled by human endothelial cells (HUVEC) and fibroblasts modeled by human mesenchymal stem cells (MSCs). The concentration ranges selected for each drug and investigational agent were based upon clinically achievable concentrations if the clinical Cmax of the agent was known.
Compounds. The drugs and investigational agents: BAY 2416964 (NSC825713), GNF351 (NSC835774), CH-223191 (NSC835775), CPI-455 (NSC825282), aza-TdCyd (NSC777586), decitabine (NSC127716), belinostat (NSC758774), entinostat (NSC756642), pevonedistat (NSC761192), tazemetostat (NSC777109), talazoparib (NSC765396), olaparib (NSC753686), selinexor (NSC780203), nedisertib (M3814, NSC802822), bortezomib (NSC756655), venetoclax (NSC766270), doxorubicin (NSC123127), elimusertib (BAY189344, NSC800525), ceralasertib (AZD6738, NSC777638), TAK-243 (NSC785004), alisertib (NSC759677), etoposide (NSC141540), topotecan (NSC609699), eribulin (NSC707389), gemcitabine (NSC613327), carboplatin (NSC241240), cisplatin (NSC119875), and SN-38 (NSC673596) were obtained from the National Cancer Institute (NCI) Developmental Therapeutics Program Chemical Repository (32). The FDA-approved anticancer drug set is available from the Developmental Therapeutics Program at https://dtp.cancer.gov/organization/dscb/obtaining/available plates.htm. […] The stock solutions were prepared in dimethyl sulfoxide (DMSO, Sigma-Aldrich, St. Louis, MO, cat. D2650), except for the platinum compounds which were prepared in saline (Quality Biological, Gaithersburg, MD, cat. 114-055-101), at 800-fold the tested concentration and stored at -70 degrees C prior to their use. All drugs and investigational agents were tested over a range starting from a high concentration at or near the clinical Cmax and decreasing in half-log increments. If the clinical Cmax for an agent had not been determined, the highest concentration tested was 10 microM (Table 1).
Cell Culture. All cells were maintained in an incubator at 37 degrees C and 5% CO2 with 95% humidity. The PDC lines were cultured according to standard operating procedures established by the NCI PDMR (https://pdmr.cancer.gov). Briefly, all PDCs were thawed and cultured in Matrigel-coated flasks prepared with a working solution of 1X Ham's F-12 nutrient mix, without supplementation (Invitrogen, Waltham, MA, cat. 11765054), 100 U/mL penicillin-streptomycin (Invitrogen, cat. 15140122), and 2.5% Matrigel (Corning Inc., Corning, NY, cat. 354248) for the first three passages. All PDCs were cultured in complete DMEM/F-12 media containing advanced DMEM/F-12 (Invitrogen, cat. 12634028), 4.9% defined fetal bovine serum, heat inactivated (HyClone Laboratories Inc., Logan, UT, cat. SH30070.03HI), 389 ng/mL hydrocortisone (Sigma-Aldrich, cat. H4001), 9.7 ng/mL human EGF recombinant protein (Invitrogen, cat. PHG0313), 23.4 microg/mL adenine (Sigma-Aldrich, cat. A2786), 97.3 U/mL penicillin-streptomycin (Invitrogen, cat. 15140122), 1.9 mM L-glutamine (Invitrogen, cat. 25030081), and 9.7 microM Y-27632 dihydrochloride (Tocris Bioscience, Bristol, United Kingdom, cat. 1254). The PDCs were cultured in complete DMEM/F12 media without 10 microM Y-27632 dihydrochloride for at least two passages prior to the screen. The established cell lines NCI-H1341 and […] were cultured in DMEM/F-12, HEPES (Invitrogen, cat. 11330032), 5% defined fetal bovine serum (HyClone Laboratories Inc., cat. SH30070.03), ITS premix universal culture supplement [insulin (5 microg/mL), transferrin (5 microg/mL), and selenious acid (5 ng/mL)] […]

CC1COCCN1c1cc(-c2ccnn2C)c2ccnc(-c3ccn[nH]3)c2n1 (stereo not given) + Cc1ccccc1N=Nc1ccc(NC(=O)c2ccnn2C)c(C)c1
IC50 (second compound 0.1 µM): 315 nM | IC50 (second compound 0.316 µM): 292 nM | IC50 (second compound 1 µM): 266 nM | IC50 (second compound 3.16 µM): 283 nM | IC50 (second compound 10 µM): 182 nM | viability, T/C (second compound 0.1 µM, first compound 0.00316 µM): 107% | viability, T/C (second compound 0.1 µM, first compound 0.01 µM): 109% | viability, T/C (second compound 0.1 µM, first compound 0.0316 µM): 97% | viability, T/C (second compound 0.1 µM, first compound 0.1 µM): 80.8% | viability, T/C (second compound 0.1 µM, first compound 0.316 µM): 48.9% | viability, T/C (second compound 0.1 µM, first compound 1 µM): 35% | viability, T/C (second compound 0.316 µM, first compound 0.00316 µM): 105% | viability, T/C (second compound 0.316 µM, first compound 0.01 µM): 128% | viability, T/C (second compound 0.316 µM, first compound 0.0316 µM): 109% | viability, T/C (second compound 0.316 µM, first compound 0.1 µM): 88% | viability, T/C (second compound 0.316 µM, first compound 0.316 µM): 46.6% | viability, T/C (second compound 0.316 µM, first compound 1 µM): 39.1% | viability, T/C (second compound 1 µM, first compound 0.00316 µM): 106% | viability, T/C (second compound 1 µM, first compound 0.01 µM): 109% | viability, T/C (second compound 1 µM, first compound 0.0316 µM): 109% | viability, T/C (second compound 1 µM, first compound 0.1 µM): 85.6% | viability, T/C (second compound 1 µM, first compound 0.316 µM): 44.2% | viability, T/C (second compound 1 µM, first compound 1 µM): 32.1% | viability, T/C (second compound 3.16 µM, first compound 0.00316 µM): 106% | viability, T/C (second compound 3.16 µM, first compound 0.01 µM): 97.5% | viability, T/C (second compound 3.16 µM, first compound 0.0316 µM): 89.7% | viability, T/C (second compound 3.16 µM, first compound 0.1 µM): 78% | viability, T/C (second compound 3.16 µM, first compound 0.316 µM): 43.5% | viability, T/C (second compound 3.16 µM, first compound 1 µM): 37% | viability, T/C (second compound 10 µM, first compound 0.00316 µM): 69.1% | viability, T/C (second compound 10 µM, first compound 0.01 µM): 64.7% | viability, T/C (second compound 10 µM, first compound 0.0316 µM): 65% | viability, T/C (second compound 10 µM, first compound 0.1 µM): 59.8% | viability, T/C (second compound 10 µM, first compound 0.316 µM): 40.1% | viability, T/C (second compound 10 µM, first compound 1 µM): 41.9%
